# From patent US11130780B2, “Inhibitors of growth factor activation enzymes” (Washington University, priority 2015, dated 2021)
# pKi: −log10 of the molar value. Where two headings read alike, the source gives them in different places. Positions of bridges follow the written chain, without caps; N, C: chain ends. Residues, ends and D or L forms follow the SMILES beside them. *: point of attachment. X2 = N=C(N)NCCC[C@H](N*)C(=O)c1nccs1
# Key:
# Assay type in all cases: biochemical
# HGFA [1] = target: T1, HGFA (Homo sapiens, UniProt Q04756); assay: Fluorescent kinetic enzyme inhibitor assay of HGFA; conditions: read-out: HGFA Ki
# T1 construct: His6 tag (N); seven amino acid spacer and seven amino acid TEV cleavage site (N); Honey Bee melittin signal peptide (N); made in house; host or cells: High 5 insect cells (baculovirus; virus raised in Sf9)
# T1 sequence (Q04756 373-655): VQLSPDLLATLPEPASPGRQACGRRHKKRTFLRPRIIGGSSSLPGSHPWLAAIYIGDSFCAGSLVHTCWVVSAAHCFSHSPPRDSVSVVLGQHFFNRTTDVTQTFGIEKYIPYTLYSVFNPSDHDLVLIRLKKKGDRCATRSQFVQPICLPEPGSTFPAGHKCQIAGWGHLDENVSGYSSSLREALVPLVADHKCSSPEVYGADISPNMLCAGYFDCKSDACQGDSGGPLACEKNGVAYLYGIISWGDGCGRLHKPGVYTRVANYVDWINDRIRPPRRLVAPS
# Text: Using primers identified as SEQ ID NO 1, SEQ ID NO 2, and standard PCR protocols, the nucleotide sequence encoding amino acids 373-655 of HGFA was synthesized. This PCR product was cloned into the SfoI-HindIII sites of a modified pFastBac HT baculovirus expression vector (Addgene, Cambridge, Mass.). This vector contains a six amino His tag followed by a seven amino spacer and a seven amino acid TEV cleavage site placed immediately downstream of the Honey Bee melittin signal peptide. Using a modified Bac to Bac Expression System (Life Technologies, Carlsbad, Calif.), recombinant HGFA bacmids were obtained by transforming DH10Bac Escherichia coli cells. To obtain HGFA containing baculovirus, purified bacmids were transfected into Sf9 insect cells. After 5 days in culture at 27° C., media was harvested from transfected Sf9 cells. This media was used to prepare baculovirus infected insect cells (BIICs). These BIIICs were used to infect High 5 insect cells. Four days post infection, media was harvested and recombinant protein prepared as follows. Media was chilled to 4° C. and spun at 4000×g for 20 minutes (all subsequent steps were performed at 4° C. unless noted). Clarified media was passed first through a Whatman GF/B 1 um (#1821-047, GE Healthcare Life Sciences, Piscataway, N.J.) and then a 0.22 um PES membrane (#99955, TPP Techno Plastic Products AG, Trasadingen, Switzerland) and then concentrated using a Pall Centramate tangential flow system and Centramate T-series Cassette (#OS010T12, Pall Corporation, Port Washington, N.Y.). Concentrated media was then buffer exchanged in two steps, five volumes of 50 mM Na-phosphate, 500 mM NaCl, pH 6.2, followed by five volumes of 50 mM Na-phosphate, 500 mM NaCl, pH 7.5. The concentrated and buffered exchanged insect cell media was again filtered as above and made 25 mM imidazole (#1202, Sigma-Aldrich, St. Louis, Mo.) and was mixed with nickel agarose beads (#H-321-25, Gold Biotechnology, Inc., St. Louis Mo.). After mixing this slurry for 12 hours, nickel agarose beads were allowed to settle by gravity and then loaded into a column. Beads were washed with buffer (25 mM Na-phosphate, 500 mM NaCl, 25 mM imidazole, pH 8) and the bound protein eluted using (25 mM Na-phosphate, 500 mM NaCl, 250 mM imidazole, pH 8). Using a Amicon Ultra-4 Centrifugal filters (#UFC801008, Merck Millipore, Ltd., Tullagreen, Ireland), peak protein fractions were concentrated and run over a Superdex-200 10/300 GL column (GE Healthcare Life Sciences, Piscataway, N.J.) in 10 mM Tris, 200 mM NaCl, 0.2 mM EDTA, pH 8. HGFA containing fractions were pooled, concentrated, made 50% glycerol, and stored at minus 20° C. Protein was quantitated using a modified Lowry protein assay (#500-0006, Bio-Rad Laboratories, Hercules, Calif.).
# Inhibitors (11-pt serial dilutions, 0-20 μM final concentration in reaction) were serially diluted in DMSO (2% DMSO final concentration) and then mixed with either recombinant serine protease domain of HGFA [Z. Han, P. K. Harris, D. E. Jones, R. Chugani, T. Kim, M. Agarwal, W. Shen, S. A. Wildman, J. W. Janetka, Acs Med Chem Lett 2014, 5, 1219-1224], matriptase (Charles Craik, UCSF) or hepsin* (#4776-SE-010, R&D Systems, Minneapolis, Minn.) in black 384 well plates (Corning #3575. Corning, N.Y.). […] The final substrate concentrations for all assays were at the Km for the respective enzymes. Changes in fluorescence (excitation at 380 nm and emission at 460 nm) were measured at room temperature over time in a Biotek Synergy 2 plate reader (Winnoski, Vt.). Using GraphPad Prism version 6.04 software program, (GraphPad Software, San Diego, Calif., www.graphpad.com), a four parameter curve fit was used to determine the inhibitor IC50s from a plot of the mean reaction velocity versus the inhibitor concentration. The IC50 values represent the average of three separate experimental determinations.
# hepsin = target: T2, hepsin (Homo sapiens, UniProt P05981); assay: P4-P2 substrate specificity using HyCoSuL, hepsin; design: concentration or dose not given beside the values; conditions: HyCoSuL substrate library; for P2 Position % Activity Hepsin: amino acid fixed at P2 position; for P3 Position % Activity Hepsin: amino acid fixed at P3 position; for P4 Position % Activity Hepsin: amino acid fixed at P4 position
# T2 construct: purchased R&D Systems 4776-SE-010
# T2 sequence (P05981 163-417 limits assumed): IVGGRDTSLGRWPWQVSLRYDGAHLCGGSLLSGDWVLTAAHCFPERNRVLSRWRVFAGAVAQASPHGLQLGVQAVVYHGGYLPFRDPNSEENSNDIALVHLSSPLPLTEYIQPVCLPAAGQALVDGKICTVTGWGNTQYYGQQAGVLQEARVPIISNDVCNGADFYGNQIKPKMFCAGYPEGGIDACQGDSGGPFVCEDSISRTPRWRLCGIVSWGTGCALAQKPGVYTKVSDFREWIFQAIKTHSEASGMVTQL
# T2 sequence (P05981 45-162 partner limits assumed): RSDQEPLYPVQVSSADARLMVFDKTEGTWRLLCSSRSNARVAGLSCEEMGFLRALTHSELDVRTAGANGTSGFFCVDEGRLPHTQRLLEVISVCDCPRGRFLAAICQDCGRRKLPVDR
# Method: (§1) Each of the P4, P3, and P2 sublibraries were screened at the 100 μM concentration with hepsin either HGFA in a 100 μL final volume per well (99 μL of protease in buffer+1 μL of 10 mM substrates mixture). The total time of the assay was 30 minutes, however only linear portions of the progress curve (5-15 minutes) were used for velocity (RFU/s) calculations. Each sublibrary screening was repeated at least 3-times and the average value calculated from each measurement was used to create the substrate specificity matrix—the best recognized amino acid in each position was set to 100%, and other amino acids were adjusted accordingly.
# Recombinant human hepsin (10 μg in 20 uL, 4776-SE-010, R&D Systems) was added to the 100 μL of activation buffer (0.1 M Tris, 0.15 M NaCl, 0.01 M CaCl2, 0.05% TRITON-X, pH=8.0) and incubated at 37° C. for 24 hours (hepsin concentration in activation buffer 2 μM). Once activated hepsin was diluted in assay buffer (0.05 M Tris, pH=9.0) to the final concentration of 4 nM and incubated at 37° C. for 15 minutes before added to a substrate.
# HGFA [2] = target: T3, HGFA (Homo sapiens, UniProt Q04756); assay: P4-P2 substrate specificity using HyCoSuL, HGFA; design: P3 Position % Activity HGFA / P2 Position % Activity HGFA: concentration or dose not given beside the values; P4 Position % Activity HGFA: tested at 100 µM; conditions: HyCoSuL substrate library; for P2 Position % Activity HGFA: amino acid fixed at P2 position; for P3 Position % Activity HGFA: amino acid fixed at P3 position; for P4 Position % Activity HGFA: amino acid fixed at P4 position
# T3 sequence (Q04756 408-655 limits assumed): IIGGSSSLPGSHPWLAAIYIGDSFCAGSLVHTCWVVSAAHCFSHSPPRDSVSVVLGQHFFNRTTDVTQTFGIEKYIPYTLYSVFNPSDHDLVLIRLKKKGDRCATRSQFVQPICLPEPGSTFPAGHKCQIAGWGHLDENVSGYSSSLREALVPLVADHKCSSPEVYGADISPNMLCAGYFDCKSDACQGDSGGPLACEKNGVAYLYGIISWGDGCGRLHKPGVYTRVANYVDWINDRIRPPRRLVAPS
# T3 sequence (Q04756 373-407 partner limits assumed): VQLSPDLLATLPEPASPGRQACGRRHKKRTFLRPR
# Method: as §1
# HFGA enzyme was diluted in the assay buffer (0.15 M NaCl, 0.025 M Tris, 0.005 M CaCl2, pH=8.0) to the final concentration of 10-20 nM (depending of sublibrary) and incubated at 25° C. for 30 minutes before added to a substrate.
Molecule,"pKi (HGFA [1]; Table 6.1, Fluorogenic Assay)",also measured
"N=C(N)NCCC[C@H](NC(=O)[C@H](Cc1ccccc1)NC(=O)[C@@H](N)Cc1c[nH]c2ccccc12)C(=O)c1nc2ccccc2s1 [Compound 1-13A1, H-WFR-kbt]",5.25,–
"CC(C)C[C@H](NC(=O)[C@H](N)Cc1c[nH]c2ccccc12)C(=O)N[C@@H](CCCNC(=N)N)C(=O)c1nc2ccccc2s1 [Compound 1-15A1, H-dWLR-kbt]",6.89,–
"N=C(N)NCCC[C@H](NC(=O)[C@H](Cc1ccccc1)NC(=O)[C@H](N)Cc1c[nH]c2ccccc12)C(=O)c1nc2ccccc2s1 [Compound 1-18A1, H-dWFR-kbt]",5.65,–
"CC(C)C[C@H](NC(=O)[C@H](Cc1c[nH]c2ccccc12)NC(=O)[C@@H](N)Cc1cncn1COCc1ccccc1)C(=O)N[C@@H](CCCNC(=N)N)C(=O)c1nc2ccccc2s1 [Compound 1-54A1, H-His(Bom)WLR-kbt]",5.43,–
"CC(C)C[C@H](NC(=O)[C@@H](N)Cc1c[nH]c2ccccc12)C(=O)N[C@@H](CCCNC(=N)N)C(=O)c1nc2ccc(C(=O)O)cc2s1 [Compound 1-56A1, H-WLR-kbt-COOH]",5.86,–
"CC(C)C[C@H](NC(=O)[C@H](N)Cc1c[nH]c2ccccc12)C(=O)N[C@@H](CCCNC(=N)N)C(=O)c1nc2ccc(C(=O)O)cc2s1 [Compound 1-57A1, H-dWLR-kbt-COOH]",6.46,–
"CC(C)C[C@H](NC(=O)[C@H](CCCNC(=N)N)NC(=O)[C@H](CCCCN)NC(=O)CCCCC[N+]1=C(/C=C/C=C/C=C2/N(C)c3ccc4ccccc4c3C2(C)C)C(C)(C)c2c1ccc1ccccc21)C(=O)N[C@@H](CCCNC(=N)N)C(=O)c1nc2ccccc2s1 [Compound 1178-2, Cy5.5-KRLR(SEQ ID NO: 8)-kbt]",6.22,–
"CC(C)C[C@H](NC(=O)[C@H](CCCNC(=N)N)NC(=O)[C@H](CCCCN)NC(=O)CCCCC[N+]1=C(/C=C/C=C/C=C2/N(C)c3ccc4ccccc4c3C2(C)C)C(C)(C)c2c1ccc1ccccc21)C(=O)N[C@@H](CCCNC(=N)N)C(=O)CCl [Compound 1179, Cy5.5-KRLR(SEQ ID NO: 8)-cmk]",7.47,–
"N=C(N)NCCC[C@H](NC(=O)[C@@H]1CC(=O)NCCCC[C@H](N)C(=O)N[C@@H](CCC(N)=O)C(=O)N1)C(=O)N[C@@H](CCCNC(=N)N)C(=O)c1nccs1 [Compound 7074, (2S,5S,13S)-13-amino-2-(3-amino-3-oxopropyl)-N—((S)-5-guanidino-1-(((S)-5-guanidino-1-oxo-1-(thiazol-2-yl)pentan-2-yl)amino)-1-oxopentan-2-yl)-3,7,14-trioxo-1,4,8-triazacyclotetradecane-5-carboxamide] (H-KQDR-X2; lactam 1-3)",–,"pKi (HGFA [1]; Table 7.1, first HGFA column): 5.23; pKi (HGFA [1]; Table 7.1, second column headed HGFA): 8.81"
"N=C(N)NCCC[C@H](NC(=O)[C@H](CC(N)=O)NC(=O)OCC1c2ccccc2-c2ccccc21)C(=O)c1nc2ccccc2s1 [Compound 7185-3, Fmoc-NR-kbt]",< 4.70,–
"N=C(N)NCCC[C@H](NC(=O)[C@H](CC(=O)O)NC(=O)OCC1c2ccccc2-c2ccccc21)C(=O)c1nc2ccccc2s1 [Compound 7185-4, Fmoc-DR-kbt]",< 4.70,–
"N=C(N)NCCC[C@H](NC(=O)[C@H](CCC(=O)O)NC(=O)OCC1c2ccccc2-c2ccccc21)C(=O)c1nc2ccccc2s1 [Compound 7185-7, Fmoc-ER-kbt]",< 4.70,–
D-Arg,–,P2 Position % Activity Hepsin (hepsin): 0.00%; P3 Position % Activity Hepsin (hepsin): 66.08%; P4 Position % Activity Hepsin (hepsin): 44.37%; P2 Position % Activity HGFA (HGFA [2]): 0.00%; P3 Position % Activity HGFA (HGFA [2]): 29.10%; P4 Position % Activity HGFA (HGFA [2]): 23.20%
D-His,–,P2 Position % Activity Hepsin (hepsin): 0.00%; P3 Position % Activity Hepsin (hepsin): 40.09%; P4 Position % Activity Hepsin (hepsin): 19.33%; P2 Position % Activity HGFA (HGFA [2]): 0.00%; P3 Position % Activity HGFA (HGFA [2]): 11.09%; P4 Position % Activity HGFA (HGFA [2]): 7.79%

# More lines, main results first:
"pKi (HGFA [1]; Table 6.1, Fluorogenic Assay)",Molecule,also measured
5.20,"N=C(N)NCCC[C@H](NC(=O)[C@H](Cc1cnc[nH]1)NC(=O)OCC1c2ccccc2-c2ccccc21)C(=O)c1nc2ccccc2s1 [Compound 7185-9, Fmoc-HR-kbt]",–
5.19,"CC[C@H](C)[C@H](NC(=O)OCC1c2ccccc2-c2ccccc21)C(=O)N[C@@H](CCCNC(=N)N)C(=O)c1nc2ccccc2s1 [Compound 7185-10, Fmoc-IR-kbt]",–
< 4.70,"N=C(N)NCCC[C@H](NC(=O)[C@H](CCCCN)NC(=O)OCC1c2ccccc2-c2ccccc21)C(=O)c1nc2ccccc2s1 [Compound 7185-12, Fmoc-KR-kbt]",–
< 4.70,"N=C(N)NCCC[C@H](NC(=O)[C@@H]1CCCN1C(=O)OCC1c2ccccc2-c2ccccc21)C(=O)c1nc2ccccc2s1 [Compound 7187-15, Fmoc-PR-kbt]",–
< 4.70,"N=C(N)NCCC[C@H](NC(=O)[C@H](CO)NC(=O)OCC1c2ccccc2-c2ccccc21)C(=O)c1nc2ccccc2s1 [Compound 7187-16, Fmoc-SR-kbt]",–
< 4.70,"C[C@@H](O)[C@H](NC(=O)OCC1c2ccccc2-c2ccccc21)C(=O)N[C@@H](CCCNC(=N)N)C(=O)c1nc2ccccc2s1 [Compound 7188-17, Fmoc-TR-kbt]",–
